Experimental data taken from publication PMC11125126, “Synthesis, Characterisation, and In Vitro Evaluation of Biocompatibility, Antibacterial and Antitumor Activity of Imidazolium Ionic Liquids” (Pharmaceutics, 2024).
Where two headings read alike, the source gives them in different places.

Key:
MCF7 cancer cells = assay: Direct cytotoxicity test of IL powders, Alamar blue assay; assay type: cell-based, human; settings: 24 h of incubation
Experimental: (§1) Cytotoxicity studies on IL powders were carried out using human dermal fibroblast (HDF) cells (Sigma-Aldrich) and a human breast cancer cell line (MCF7). In addition, ILs loaded in PVC polymer substrates were tested for their cytocompatibility and adhesion properties on the HDF. HDF cells were cultured in 75 cm^2 cell culture flask in Dulbecco’s Modified Eagle’s Medium (DMEM) supplemented with 20% Foetal Bovine Serum (FBS), 1% non-essential amino acid (NEAA), antibiotic solution (streptomycin 100 µg/mL and penicillin 100 U/mL, Sigma Aldrich) and 2 mM L-glutamine. MCF7 cells were grown in DMEM with 10% FBS and the same antibiotics as mentioned above. The cells were maintained in a culture at 37 °C, with 5% CO2 and 95% humidity to achieve a confluent layer. Control cells were cultured in a complete medium without any compounds in tissue culture plates. Before biological testing, the samples were sterilised using a UV light for 2 h.
(§2) A direct cytotoxicity test was used to assess the in vitro cytotoxicity of IL powders. IL powders with different alkyl chains were dissolved in DMEM media to obtain solutions at various concentrations (0.5–1–5 and 10 µg/mL) to determine the best formulation.
(§3) After 24 h of incubation of IL solutions (200 µL) with seeded cells under specific environmental conditions (T = 37 °C, HR = 95%, CO2 = 5%), cell viability was tested using the Alamar blue assay (AbD Serotec, Milan, Italy) following the manufacturer’s instructions.
(§4) In summary, each well received a 200 µL aliquot of Alamar Blue^TM diluted 1:10 in phenol red-free medium and was incubated for 4 h at 37 °C, 5% CO2. Following this, 100 µL of the solution was transferred to a 96-well plate for colorimetric analysis. Wells with no cells were included to account for any background interference from the redox indicator. Optical density was immediately measured using a spectrophotometer (Victor X3, Perkin Elmer, Waltham, MA, USA) at 560 and 595 nm wavelengths. The results were presented as a percentage of cell viability compared to that of the control (cells grown on tissue culture plates).
(§5) Here, the antitumor activity and cytotoxicity of the synthetised imidazolium-based ionic liquids have been determined for breast cancer cells (MCF-7) and healthy human fibroblast (HDF) cells. […] Table 5 reports the IC50 values in µg/mL and µM to make their comparison with the literature data easy.

Pseudomonas fluorescens = assay: MIC/MBC by broth dilution, pure ILs; assay type: cell-based; settings: 24 h
Source text: (§6) Within the Di3A (Dipartimento di Agricoltura, Alimentazione e Ambiente, University of Catania, Italy) microbial collection, two Gram-negative strains (Escherichia coli and Pseudomonas fluorescens) and one Gram-positive strain (Listeria monocytogenes) were studied in order to define the potential efficacy of ionic liquids in relation to the different structure of the bacterial cell wall.
(§7) For the pure ILs, the minimal inhibitory concentration (MIC) and minimal bactericidal concentration (MBC) were determined in Nutrient Broth (NB, Oxoid, Basingstoke, UK) medium by broth dilution method, according to the Clinical and Laboratory Standards Institute (CLSI).
All the bacterial strains were individually grown for 24 h at 35 or 27 °C for P. fluorescens, with shaking. After the incubation period, the cells were collected by centrifugation and re-suspended in sterile NB to obtain a stock culture of 10^9 CFU/mL. […]
(§8) Tubes were incubated at 35 or 27 °C in an orbital shaker and evaluated for the viable count of E. coli, P. fluorescens, and L. monocytogenes after 24 h by spread-plating 100 µL of each suspension on Nutrient Agar (NA, Oxoid, Basingstoke, UK) incubated for 24–48 h at 35 or 27 °C.
(§9) In this study, MIC and MBC are expressed in both µg/mL and µM to make the comparison with the literature data easy. Each experiment was performed in triplicate.

Escherichia coli = assay: MIC/MBC by broth dilution, pure ILs; assay type: cell-based; settings: 24 h
Source text: as §6, §7
(§10) All the bacterial strains were individually grown for 24 h at 35 or 27 °C for P. fluorescens, with shaking. After the incubation period, the cells were collected by centrifugation and re-suspended in sterile NB to obtain a stock culture of 10^9 CFU/mL.
(§11) Tubes containing 5 mL of NB with decreasing concentrations of ILs (1000, 500, 250, 125, 50, 25, 12.5, 5 and 0 µg/mL) were inoculated with each bacterial stock culture at a final concentration of 10^6 CFU/mL.
as §8, §9

Listeria monocytogenes = assay: MIC/MBC by broth dilution, pure ILs; assay type: cell-based; settings: 24 h
Source text: as §6, §7, §10, §11, §8, §9

HDF cells = assay: Direct cytotoxicity test of IL powders, Alamar blue assay; assay type: cell-based, human; settings: 24 h of incubation
Experimental: as §1, §2, §3, §4, §5

[1] = NI = no inhibition at IL maximum concentration used (1000 µM), read-out: MIC
[2] = NI = no inhibition at IL maximum concentration used (1000 µM), read-out: MBC

| Compound | IC50 (MCF7 cancer cells; Homo sapiens, n = 3) [µg/mL] | IC50 (MCF7 cancer cells; Homo sapiens, n = 3, mean ± SD) [µM] | MIC (Pseudomonas fluorescens; [1]) [µM] | MBC (Escherichia coli; 10^6 CFU/mL, read-out: MBC) [µg/mL] | MIC (Escherichia coli; 10^6 CFU/mL, read-out: MIC) [µg/mL] | MBC (Escherichia coli; [2]) [µM] | MIC (Escherichia coli; [1]) [µM] | MBC (Listeria monocytogenes; 10^6 CFU/mL, read-out: MBC) [µg/mL] | MIC (Listeria monocytogenes; 10^6 CFU/mL, read-out: MIC) [µg/mL] | MBC (Listeria monocytogenes; [2]) [µM] | MIC (Listeria monocytogenes; [1]) [µM] | IC50 (HDF cells; Homo sapiens, n = 3) [µM] | IC50 (HDF cells; Homo sapiens, n = 3, mean ± SD) [µg/mL] | MBC (Pseudomonas fluorescens; [2]) [µM] | MBC (Escherichia coli; 10^6 CFU/mL) [µg/mL] | MIC (Escherichia coli; 10^6 CFU/mL) [µg/mL] | MBC (Listeria monocytogenes; 10^6 CFU/mL) [µg/mL] | MIC (Listeria monocytogenes; 10^6 CFU/mL) [µg/mL] | IC50 (HDF cells; n = 3) [µM] | IC50 HDF (HDF cells; n = 3, mean ± SD) [µg/mL] | also measured |
| --- | --- | --- | --- | --- | --- | --- | --- | --- | --- | --- | --- | --- | --- | --- | --- | --- | --- | --- | --- | --- | --- |
| COc1cccc2c1C(=O)c1c(O)c3c(c(O)c1C2=O)C[C@@](O)(C(=O)CO)C[C@@H]3O[C@H]1C[C@H](N)[C@H](O)[C@H](C)O1 [Doxorubicin, reference compound] | 7.2 | 13.2 | – | – | – | – | – | – | – | – | – | – | – | – | – | – | – | – | – | – | – |
| CCCCCCCCCCCCCCCCCC[n+]1ccn(C)c1.F[B-](F)(F)F [C18mimBF4] | 1.95 | 4.61 | > 1000 | 106 | 52.8 | 250 | 125 | 422 | 211 | 1000 | 500 | 10.8 | 4.57 ± 0.06 | – | – | – | – | – | – | – | – |
| CCCCCCCCCC[n+]1ccn(C)c1.COC(=O)c1cc(C(=O)OC)cc(S(=O)(=O)[O-])c1 [C10mimDMSIP] | – | – | 500 | – | – | 500 | 250 | – | – | 1000 | 250 | – | – | 1000 | 248.31 | 124.16 | 496.62 | 124.16 | 11.2 | 5.56 ± 0.04 | MBC (Pseudomonas fluorescens; 10^6 CFU/mL): 496.62 µg/mL; MIC (Pseudomonas fluorescens; 10^6 CFU/mL): 248.31 µg/mL; IC50 MCF7 (MCF7 cancer cells; n = 3): 5.42 µg/mL; IC50 (MCF7 cancer cells; n = 3, mean ± SD): 10.9 µM |
| CCCCCCCCCCCCCC[n+]1ccn(C)c1.COC(=O)c1cc(C(=O)OC)cc(S(=O)(=O)[O-])c1 [C14mimDMSIP] | – | – | 50 | – | – | 50 | 25 | – | – | 125 | 50 | – | – | 125 | 27.64 | 13.82 | 69.09 | 27.64 | 10.1 | 5.56 ± 0.04 | MBC (Pseudomonas fluorescens; 10^6 CFU/mL): 69.09 µg/mL; MIC (Pseudomonas fluorescens; 10^6 CFU/mL): 27.64 µg/mL; IC50 MCF7 (MCF7 cancer cells; n = 3): 2.91 µg/mL; IC50 (MCF7 cancer cells; n = 3, mean ± SD): 5.22 µM |
| CCCCCCCCCCCCCCCCCC[n+]1ccn(C)c1.COC(=O)c1cc(C(=O)OC)cc(S(=O)(=O)[O-])c1 [C18mimDMSIP] | – | – | – | – | – | 1000 | 1000 | – | – | 500 | 500 | – | – | – | 608.83 | 608.83 | 304.4 | 304.4 | 6.59 | 4.01 ± 0.14 | IC50 MCF7 (MCF7 cancer cells; n = 3): 1.96 µg/mL; IC50 (MCF7 cancer cells; n = 3, mean ± SD): 3.22 µM |
| CCCCCCCCCCCCn1cc[n+](C)c1.COC(=O)c1cc(C(=O)OC)cc(S(=O)(=O)[O-])c1 [C12mimDMSIP, 1-dodecyl-3-methylimidazolium 1,3-dimethyl-5-sulfoisophthalate] | – | – | 125 | – | – | 125 | 50 | – | – | 50 | 25 | – | – | 500 | 65.58 | 26.24 | 26.24 | 13.12 | 10.6 | 5.56 ± 0.04 | MBC (Pseudomonas fluorescens; 10^6 CFU/mL): 262.33 µg/mL; MIC (Pseudomonas fluorescens; 10^6 CFU/mL): 65.58 µg/mL; IC50 MCF7 (MCF7 cancer cells; n = 3): 4.95 µg/mL; IC50 (MCF7 cancer cells; n = 3, mean ± SD): 9.44 µM |
| CCCCCCCCCCCCn1cc[n+](C)c1.F[B-](F)(F)F [C12mimBF4, 1-dodecyl-3-methylimidazolium tetrafluoroborate] | 2.05 | 6.06 | 50 | 84.6 | 16.9 | 250 | 50 | 16.9 | 8.46 | 50 | 25 | 12.8 | 4.34 ± 0.01 | 125 | – | – | – | – | – | – | MBC (Pseudomonas fluorescens; 10^6 CFU/mL, read-out: MBC): 42.3 µg/mL; MIC (Pseudomonas fluorescens; 10^6 CFU/mL, read-out: MIC): 16.9 µg/mL |
| CCCCCCCCCCCCCC[n+]1ccn(C)c1.F[B-](F)(F)F [C14mimBF4] | 4.41 | 12.1 | 25 | 9.16 | 4.58 | 25 | 12.5 | 4.58 | 4.58 | 12.5 | 12.5 | 10.3 | 3.78 ± 0.17 | 125 | – | – | – | – | – | – | MBC (Pseudomonas fluorescens; 10^6 CFU/mL, read-out: MBC): 45.8 µg/mL; MIC (Pseudomonas fluorescens; 10^6 CFU/mL, read-out: MIC): 9.16 µg/mL |
| CCCCCCCCCCCCCCCC[n+]1ccn(C)c1.F[B-](F)(F)F [C16mimBF4] | 1.64 | 4.16 | 125 | 49.3 | 9.86 | 125 | 25 | 98.6 | 19.7 | 250 | 50 | 20.9 | 8.26 ± 0.03 | 250 | – | – | – | – | – | – | MBC (Pseudomonas fluorescens; 10^6 CFU/mL, read-out: MBC): 98.6 µg/mL; MIC (Pseudomonas fluorescens; 10^6 CFU/mL, read-out: MIC): 49.3 µg/mL |
